# Data as given in US20210393664A1, “THERAPEUTIC METHODS AND COMPOSITIONS FOR TREATING ACUTE MYELOID LEUKEMIA USING DEVIMISTAT” (Rafael Pharmaceuticals, Inc., priority 2018, published 2021).
# Experiments:
# [1] = Adverse events by relatedness to devimistat; assay type: in vivo, human; conditions: patients
# From the text: An AE can therefore be any unfavorable sign (including an abnormal laboratory finding), symptom, or disease temporarily associated with the study treatment, whether or not related to the investigational product.
# Probably Related—A clinical event follows a reasonable temporal sequence from the time of Investigational Product (CPI-613®) administration. The toxicity cannot be reasonably explained by other factors such as the subjects clinical state or concurrent medical condition, or concurrent medication(s).
# Possibly Related—A clinical event follows a reasonable temporal sequence from the time of active Investigational Product (CPI-613®) administration, but could also have been produced by other factors such as the subjects clinical state, or concurrent medical condition, or concurrent medication(s).
# [2] = Animal study NCL-049: extra air in the dead space of IV catheters during administration; assay type: in vivo; conditions: accidental co-administration of extra air in the dead space of IV catheters; animal studies (Study NCL-049)
# Protocol: (§1) Diluted CPI-613® (devimistat) drug product must be administered over 2 hours, concurrently with D5W at the rate of 125 mL/hour, by IV infusion via a central line catheter, using an infusion pump, that is free flowing and free of air in the dead space of the IV catheter. This is done to minimize vascular irritation, inflammation and acute toxicity of CPI-613® (devimistat) (Study NCL-049). […] To avoid local reactions at and around the site of administration, CPI-613® (devimistat) must be administered via a central IV catheter.
# [3] = design: species or system animal; conditions: in vivo, iv
# Protocol: as §1
# [4] = Leaching of DEHP from IV infusion sets and IV bags; assay type: physicochemical; conditions: DEHP-containing IV infusion sets and IV bags
smiles,measurement,setting,value
"O=C(O)CCCCC(CCSCc1ccccc1)SCc1ccccc1 (stereo not shown) [devimistat, 6,8-bis-benzylthio-octanoic acid]",adverse events probably related,[1],"Nausea, Vomiting, Diarrhea, Increased creatinine, Neutropenia, Hyperkalemia, Hypoalbuminemia, Hypophosphatemia, Hyponatremia, Fatigue, Platelet count decreased, Renal failure (reversible), Glomerular filtration rate (decreased), Hemoglobin (anemia)"
same,acute toxicity,[2],potential to induce acute toxicity
same,local inflammation,[3],significant local inflammation
same,leaching of DEHP,[4],can cause leaching of DEHP from IV infusion sets and IV bags
